Measured values published in article PMC5617979, “Comparative Study on Antistaphylococcal Activity of Lipopeptides in Various Culture Media” (Antibiotics, 2017).
Positions of bridges follow the written chain, without caps; N, C: chain ends. No end group written: not given here.

Legend:
[1] = tested on: Staphylococcus aureus (five reference strains ATCC 25923, ATCC 6538, ATCC 6538/P, ATCC 9144, ATCC 12598 and five clinical strains); experiment: MIC assay, broth microdilution; format: cell-based; settings: planktonic S. aureus, 5 × 10^5 CFU/mL, 18 h, 37 °C, Figure 1, mean MIC
Protocol: Antimicrobial activity was determined against five reference strains: S. aureus ATCC 25923, S. aureus ATCC 6538, S. aureus ATCC 6538/P, S. aureus ATCC 9144, and S. aureus ATCC 12598, which were obtained from the Polish Collection of Microorganisms (Polish Academy of Sciences, Wroclaw), and against five clinical strains of S. aureus, which were provided by the Department of Oral Microbiology, Medical University of Gdańsk (Poland). These strains were also characterized in terms of methicillin resistance. Preliminary identification and detection was conducted on the ChromID MRSA/ChromID S. aureus biplate (bioMérieux) for simultaneous detection of S. aureus and methicillin-resistant S. aureus (MRSA). All tested strains (both reference and clinical S. aureus) were stored in cryo-vials (Roti®-Store, Carl Roth) and recultivated before all microbiological tests. All strains were cultured in three different media: Brain-Heart Infusion Broth (BHI, Biocorp, Warsaw, Poland), Mueller Hinton Broth (MH, Biocorp), and Tryptic-Soy Broth (TSB, Biocorp). Moreover, the stock solutions of lipopeptides were prepared in two different solvents: PBS and an aqueous solution of acetic acid/BSA (0.01% and 0.2% respectively). MIC was determined by broth microdilution method on polystyrene 96-well plates. Bacteria at initial inoculums of 5 × 10^5 CFU/mL were exposed to lipopeptides at concentrations ranging from 0.5 to 256 µg/mL and incubated for 18 h at 37 °C. The MIC value was taken as the lowest concentration of the compound that inhibited the growth of the microorganisms. All assays were performed in triplicate and included the growth and sterility control.

Staphylococcus = settings: previously described compounds; cited from earlier work
Excerpt: All of the lipopeptides are palmitoylated at N-terminus and contain three or four basic amino acid residues. Moreover, compounds are amidated at C-termini to maximize positive charge. […] Arginine, as a basic amino acid, introduce positive charge; however, it has more hydrogen donor atoms and is more basic (pKa~1 ...

Enterococcus faecalis = settings: cited from earlier work
Excerpt: (§1) It should be noted that conclusions drawn from the in vitro studies are not always consistent with those determined in vivo. Nevertheless, these “not-ideal” conditions may reveal an unexpected activity of new compounds. […] In this case, the MIC values decreased down to sixteenfold in the presence of plasma. The synergistic effect may be connected with complement proteins or clotting factors, as the a ...

S. aureus = settings: cited from earlier work
Excerpt: as §1

Pseudomonas aeruginosa = settings: cited from earlier work
Excerpt: as §1

Escherichia coli = settings: cited from earlier work
Excerpt: as §1

Row | Substance | MIC values in BHI and TSB compared with MH (influence of medium type) [1] | antistaphylococcal activity (Staphylococcus) | other results
1 | Pal-CKKKRC-NH2 [Pal-CKKKRC-NH2 (linear), non-cyclized palmitoylated lipopeptide amide with two cysteine residues] | this dependence was not observed | – | –
2 | Pal-CKKRKC-NH2 (disulfide) [palmitoylated lipopeptide amide with intramolecular disulfide bridge] | slightly more active in MH | – | –
3 | Pal-CRKKKC-NH2 (disulfide) [palmitoylated lipopeptide amide with intramolecular disulfide bridge] | slightly more active in MH | – | –
4 | Pal-KKKK-NH2 | – | high antistaphylococcal activity | –
5 | Pal-RRR-NH2 | – | high antistaphylococcal activity | –
6 | protegrin-1 (RGGRLCYCRRRFCVCVGR-NH2; disulfide 8-13, 6-15; ends not checked; UniProt P32194 131-148, looked up) [antimicrobial peptide studied by Steinberg et al. (1997)] | – | – | fold lowering of MIC with peptide prepared in aqueous acetic acid and BSA vs reference CLSI protocol (Enterococcus faecalis): 5 times; fold lowering of MIC with peptide prepared in aqueous acetic acid and BSA vs reference CLSI protocol (S. aureus): 5 times; fold lowering of MIC with peptide prepared in aqueous acetic acid and BSA vs reference CLSI protocol (Pseudomonas aeruginosa): up to 30 times; fold lowering of MIC with peptide prepared in aqueous acetic acid and BSA vs reference CLSI protocol (Escherichia coli): up to 30 times
